{
  "source": "patent US20190076440A1",
  "about": "“TREATMENT OF TISSUE DISORDERS” (priority 2016, published 2019)",
  "key": {"[1]": {"tested_on": "wild type (+/+) and Col1a2 p.G610C (+/-) mice osteoblast cells", "assay": "Alkaline phosphatase activity assay in osteoblasts", "assay_type": "cell-based, mouse", "settings": "7 days in osteogenic differentiation media", "method": "Osteoblasts were cultured for 7 days in osteogenic differentiation media prior to fixation and staining. Photographs of 12-well plate wells containing wild type (+/+) and Col1a2 p.G610C (+/−) mice osteoblast cells untreated (DMSO) or treated with CBZ; and\nThe effects of CBZ were studied on Calvarial osteoblasts from Col1a2 p.G610C mice lines (Osteogenesis Imperfecta mouse model).\nFor testing of Alkaline phosphatase activity wild type (+/+) and heterozygous ((+/−) from Col1 a2 p.G610C mice) osteoblasts were cultured for 7 days in osteogenic differentiation media and with DMSO (control) or CBZ prior to fixation and staining with an Alkaline phosphate staining kit as per the manufactures instructions."}, "WT mice": {"tested_on": "WT mice", "assay": "CBZ treatment of wild-type mice (growth plate, collagen X localisation, bone growth)", "assay_type": "in vivo, mouse", "method": "FIG. 7 illustrates the effect of CBZ treatment of WT mice Wild-type (WT) mice were treated with CBZ for a period of one week. Untreated mice were used as controls. (a)H+E images of the tibial growth plate at 4 weeks of age. (b) Table showing measurements of the growth plate zones. Mean±SEM. Number of animals shown in bracket. (c) Immunohistochemistry for collagen X in the tibial growth plate. Percentage increase in bone growth of the (d) Tibia and (e) Femur from 3 weeks of age. Mean±SEM.\n(§1) Mice were anaesthetised using isofluorane, placed on X-Ray hyperfilm (GE healthcare, GZ28906850) and X-Rayed using a Flaxitron X-ray specimen radiography system (Flaxitron MX-20). X-Rays were performed prior to implantation and once per week for a maximum of 3 weeks. The analysis of the skeleton was done using Growbase software (Certus Technology Associated Limited, UK) to calculate the length of the femur, tibia and inner canthal distance. The bone growth rate was determined as a percentage increase relative to measurements at 3 weeks of age. Image J was used to analyse the angle of deflection from the vertical tuberosity of the ischium to determine the severity of the hip dysplasia phenotype. All measurements were analysed by ANOVA to determine significance using GraphPad Prism 6.0 software.\nGrowth plate zone widths were measured on images of known magnification as described previously (Rajpar et al 2009). The beginning of the proliferative zone was defined as the point at which the individual round chondrocytes flattened out and arranged into columns. The start of the hypertrophic zone was defined as the point at which proliferative chondrocytes rounded up and enlarged. The end of the hypertrophic zone was defined as the vascular invasion front. For each animal the data from three separate sections, spaced a minimum of 50 μm apart were averaged. Measurements were analysed for statistical significance by one-way ANOVA using GraphPad Prism 6.0 software. […]"}, "[2]": {"tested_on": "MCDS mice (homozygous N617K collagen X mutation)", "assay": "Skeletal measurements by X-ray (hip dysplasia angle, bone growth) in MCDS mice", "assay_type": "in vivo, mouse", "method": "FIG. 2 illustrates the effect of carbamazepine on the growth plate pathology associated with MCDS. 3 week old MCDS mice were treated with CBZ for a period of one week. Untreated MCDS mice and mice wild-type for collagen X (WT) were used as controls. (a) H+E staining of the tibial growth plate at 4 weeks of age. (b) Immunohistochemistry for Grp78 and (c) Immunohistochemistry for collagen X. Yellow bars show the hypertrophic zone. Scale bars equal to 100 μM in all cases. (d) is a table showing growth plate zone measurements at 4 weeks of age. Mean±SEM. Number of animals shown in brackets. Significance between mutant untreated mice and treated mice shown by the asterisk. (e) Western blots of rib growth plate cartilage at 4 weeks of age for Grp78, ATF4, p62/SQSTM1 and LC3-II alongside the associated coomassie blue stain used as a loading control. Quantification of these blots against the coomassie protein level is shown in supplementary S4. (f) X-ray images of the pelvis at 6 weeks of age. The angle between the lines was measured in a minimum of 5 animals and a graph showing the mean±SEM is shown in (g). Graphs showing the percentage increase in growth of the (h) tibia and (i) femur from 3 weeks of age.\nThe generation and genotyping of the Col10a1 p.N617K mouse line has been described previously (Rajpar et al 2009). Mice homozygous for the MCDS-causing N617K collagen X mutation were x-rayed at 3 weeks of age and treated with carbamazepine (250 mg/kg/day) for up to 21 days via a subcutaneous implantation of a slow-release pellet (Innovative research of America USA C-113) whilst the mouse was under anaesthetic. The incision was sutured closed, glued using Vetbond tissue adhesive (Santa-Cruz sc-361931) and the mice given an appropriate dose of buprenorphine painkiller depending on their body weight. Male mice were X-rayed once per week in order monitor bone growth; female mice were sacrificed after 1 week of treatment either by cervical dislocation or by carbon dioxide overdose under the provisions of the Animals (Scientific Procedures) Act 1986 and tissues collected for histological analysis. All procedures were carried out according to Home Office regulations.\nas §1"}, "[3]": {"settings": "3 weeks of treatment, vs untreated"}},
  "data": [
    {"smiles": "NC(=O)N1c2ccccc2C=Cc2ccccc21", "note": "[CBZ, Carbamazepine]", "values": [
      {"measurement": "ALP activity", "setting": "[1]; OI model (Col1a2 p.G610C +/-) osteoblasts", "value": "No change"},
      {"measurement": "ALP activity", "setting": "[1]; wild type osteoblasts", "value": "No change"},
      {"measurement": "bone growth rates", "setting": "WT mice", "value": "did not cause a significant increase"},
      {"measurement": "hypertrophic zone width", "setting": "WT mice; CBZ for one week", "value": "no effect"},
      {"measurement": "collagen X protein localisation", "setting": "WT mice; tibial growth plate", "value": "no effect"},
      {"measurement": "fold increase in the rate of femur bone growth", "setting": "[2]; [3]", "value": 1.44, "unit": "fold"},
      {"measurement": "fold increase in the rate of tibial bone growth", "setting": "[2]; [3]", "value": 1.25, "unit": "fold"},
      {"measurement": "% increase in bone length over treatment period, tibia", "setting": "[2]; 3 weeks, mean±SEM, n=6, untreated 25.6±1.3, p<0.05", "value": "32.7 ±1.6", "unit": "%"},
      {"measurement": "% increase in bone length over treatment period, femur", "setting": "[2]; 3 weeks, mean±SEM, n=6, untreated 27.8±2.3, p<0.05", "value": "40.1±2.0", "unit": "%"},
      {"measurement": "angle of deflection of the ischial tuberosity (hip dysplasia)", "setting": "[2]; CBZ for 3 weeks, 6 weeks of age, untreated MCDS 31.6°, WT 7.7°", "value": 25.4, "unit": "°"}
    ]}
  ]
}
